# Test results reported in patent publication US9645154B2, “Method for detecting cancer cell” (ARKRAY, Inc., priority 2010, dated 2017).
# What was measured:
# [1] = tested on: human fibrosarcoma cell line HT1080; test: Labeled sugar incorporation, fluorescence microscopy image analysis (positive rate); type: cell-based; settings: for Positive rate (Cancer cells): Fibrosarcoma, threshold value 370; for Positive rate of cancer cells: fibrosarcoma cell line
# Source text: (§1) In accordance with the conventional method, cultured human fibrosarcoma cell line HT1080 (DS Pharma Biomedical Co., Ltd.) was harvested with trypsin (Invitrogen). The human gastric cancer cell line SNU-1 (ATCC), which is a suspension cell line, was directly harvested without any trypsin treatment. The cell suspension of the harvested cancer cells was centrifuged, and the supernatant was removed. The cells were resuspended with Dulbecco's PBS (−) (Nissui Pharmaceutical Co., Ltd.) and centrifuged, and the supernatant was removed again.
# When performing the hemolyzing treatment, the blood cell fraction collected as described above was hemolyzed using ammonium chloride (STEMCELL Technologies) according to the manufacture's manuals.
# The number of the cells was counted for each cell line using a hemacytometer in accordance with the conventional method, and then 10^5 to 10^6 cells per sample (cell suspension) was aliquoted. Each of the sample was centrifuged to remove the supernatant. Subsequently, 2-NBDG (Wako Pure Chemical Industries, Ltd.; at the final concentration given in Table 3 or 4) dissolved in Dulbecco's PBS (−) was added thereto, and the cells were suspended well. After the reaction, Dulbecco's PBS (−) was added to the mixture, and the resultant was centrifuged to remove the supernatant. The cells were resuspended with Dulbecco's PBS (−) and centrifuged, and the supernatant was removed again. The steps of resuspending cells with Dulbecco's PBS (−), centrifuging and removing the supernatant were then repeated 2 to 3 times, thereby washing the cells thoroughly. The cells were resuspended with Dulbecco's PBS (−), the concentration thereof was adjusted, and then added dropwise to a 384-well plate. The plate was centrifuged to spin down the cells. The image was captured with a fluorescence microscope (Nikon Corp.) using B-2A filter combination (Nikon Corp.). The B-2A set covers the following wavelengths. EX (excitation wavelength): 475±15 nm, DM: 505 nm or longer, BA (fluorescence wavelength) 520 nm or longer.
# (§2) The acquired images were analyzed using an image analysis software NIS-ELEMENTS (trade name, Nikon Corp.) to evaluate the fluorescence intensity of the cell. […]
# In a manner similar to Example 2, each of human breast adenocarcinoma cells (cell line name: MCF-7; DS Pharma Biomedical Co., Ltd.), human colon adenocarcinoma cells (cell line name: SW620; DS Pharma Biomedical Co., Ltd.), human prostate cancer cells (cell line name: PC3; DS Pharma Biomedical Co., Ltd.), human alveolar epithelial cancer cells (cell line name: NCI-H358; DS Pharma Biomedical Co., Ltd.), human gastric cancer cells (cell line name: SNU-1; ATCC) and human fibrosarcoma cells (cell line name: HT1080; DS Pharma Biomedical Co., Ltd.) was detected with the labeled sugar (2-NBDG).
# [2] = tested on: human gastric cancer cells (SNU-1); test: as above; type: cell-based; settings: threshold value 490
# Source text: as §1
# The number of the cells was counted for each cell line using a hemacytometer in accordance with the conventional method, and then 10^5 to 10^6 cells per sample (cell suspension) was aliquoted. Each of the sample was centrifuged to remove the supernatant. Subsequently, 2-NBDG (Wako Pure Chemical Industries, Ltd.; at the final concentration given in Table 3 or 4) dissolved in Dulbecco's PBS (−) was added thereto, and the cells were suspended well. […] The image was captured with a fluorescence microscope (Nikon Corp.) using B-2A filter combination (Nikon Corp.). […] EX (excitation wavelength): 475±15 nm, DM: 505 nm or longer, BA (fluorescence wavelength) 520 nm or longer.
# as §2
# Blood cells = test: Aminolevulinic acid (with FeCl2 and ascorbic acid at the same concentration) labeling, fluorescence microscopy image analysis (false-positive/negative rate); type: cell-based, human
# Source text: Blood was collected from a human subject using a vacuum blood collection tube (with EDTA•2K). Blood cells were separated using HetaSep (STEMCELL Technologies) in accordance with manufacturer's instructions.
# When performing the hemolyzing treatment, the collected blood cell fraction was hemolyzed using ammonium chloride (STEMCELL Technologies) at room temperature according to the manufacture's manuals.
# The number of the cells was counted using a hemacytometer in accordance with the conventional method, and then 10^5 to 10^6 cells per sample (cell suspension) was aliquoted. The sample was centrifuged to remove the supernatant. Subsequently, aminolevulinic acid 5-AMINOLEVULINATE HYDROCHLORIDE (trade name, Cosmo Bio Co., Ltd., at the final concentration given in Table 7 or 8) dissolved in Dulbecco's PBS (+) and FeCl2 and ascorbic acid having the same concentration as that of aminolevulinic acid, respectively, were added thereto, and the cells were suspended well. The number of the cells was adjusted, and then the cells were added dropwise to a 384-well plate. The plate was centrifuged to spin down the cells. The image was captured with a fluorescence microscope (Nikon Corp.).
# The wavelengths for the fluorescence filter set: EX (excitation wavelength): 402±7.5, DM: 430 or longer, BA (fluorescence wavelength): 625±15.
# The acquired images were analyzed using an image analysis software NIS-ELEMENTS (trade name, Nikon Corp.) to evaluate the fluorescence intensity of the cell.
# [3] = hemolyzed, 10 mM, 5 min, 23° C.
# [4] = single, Glucose conc.: 1 mM, Temp.: 37° C., Time: 30 min
# [5] = hemolyzed, 0.3 mM, 60 min, 37° C., threshold value 198 (Gastric cancer)
# [6] = hemolyzed, 0.3 mM, 60 min, 37° C., threshold value 203 (Fibrosarcoma)
# [7] = hemolyzed, 0.3 mM, 60 min, 37° C., threshold value 207 (Colon adenocarcinoma)
# [8] = hemolyzed, 0.3 mM, 60 min, 37° C., threshold value 212 (Alveolar epithelial cancer)
# [9] = hemolyzed, 0.3 mM, 60 min, 37° C., threshold value 265 (Prostate cancer)
# [10] = hemolyzed, 0.3 mM, 60 min, 37° C., threshold value 268 (Breast adenocarcinoma)
# [11] = hemolyzed, 0.1 mM, 37° C., 60 min
# [12] = hemolyzed, 0.3 mM, 37° C., 60 min (concentration series)
# [13] = hemolyzed, 1 mM, 37° C., 60 min
# [14] = hemolyzed, 4° C., 0.3 mM, 60 min
# [15] = hemolyzed, 23° C., 0.3 mM, 60 min
# [16] = hemolyzed, 37° C., 0.3 mM, 60 min (temperature series)
# [17] = hemolyzed, 30 min, 0.3 mM, 37° C.
# [18] = hemolyzed, 60 min, 0.3 mM, 37° C. (time series)
# [19] = hemolyzed, 120 min, 0.3 mM, 37° C.
# [20] = without hemolyzing treatment, 0.1 mM, 37° C., 60 min
# [21] = without hemolyzing treatment, 0.3 mM, 37° C., 60 min (concentration series)
# [22] = without hemolyzing treatment, 1 mM, 37° C., 60 min
# [23] = without hemolyzing treatment, 4° C., 0.3 mM, 60 min
# [24] = without hemolyzing treatment, 23° C., 0.3 mM, 60 min
# [25] = without hemolyzing treatment, 37° C., 0.3 mM, 60 min (temperature series)
# [26] = without hemolyzing treatment, 30 min, 0.3 mM, 37° C.
# [27] = without hemolyzing treatment, 60 min, 0.3 mM, 37° C. (time series)
# [28] = without hemolyzing treatment, 120 min, 0.3 mM, 37° C.
smiles,measurement,setting,value
"O=[N+]([O-])c1ccc(N[C@H]2C(O)O[C@H](CO)[C@@H](O)[C@@H]2O)c2nonc12 (stereo partly drawn) [2-NBDG, 2-[N-(7-nitrobenz-2-oxa-1,3-diazol-4-yl)amino]-2-deoxy-D-glucose]",Positive rate (Cancer cells),[1]; [3],100.0%
same,Positive rate (Cancer cells),[1]; [4],100.0%
same,Positive rate of cancer cells,"[1]; Mean luminance, hemolyzed, 10 mM, 5 min, 23° C., threshold value 436",100.0%
same,Positive rate of cancer cells,"[1]; Total luminance, hemolyzed, 10 mM, 5 min, 23° C., threshold value 35,000",90.7%
same,Positive rate (Fibrosarcoma cell line),[1]; [3],100.0%
same,Positive rate (HT1080 cells),"[1]; hemolyzed, 0.1 mM, 37° C., 30 min, threshold value 380",33.3%
same,Positive rate (HT1080 cells),"[1]; hemolyzed, 1 mM, 37° C., 30 min, threshold value 520",73.1%
same,Positive rate (HT1080 cells),"[1]; hemolyzed, 10 mM, 37° C., 30 min, threshold value 1150",95.0%
same,Positive rate (HT1080 cells),"[1]; hemolyzed, 4° C., 10 mM, 5 min, threshold value 640",79.0%
same,Positive rate (HT1080 cells),"[1]; hemolyzed, 23° C., 10 mM, 5 min, threshold value 640",81.1%
same,Positive rate (HT1080 cells),"[1]; hemolyzed, 37° C., 10 mM, 5 min, threshold value 750",89.4%
same,Positive rate (HT1080 cells),"[1]; hemolyzed, 5 min, 10 mM, 37° C., threshold value 570",119.8%
same,Positive rate (HT1080 cells),"[1]; hemolyzed, 30 min, 10 mM, 37° C., threshold value 880",107.8%
same,Positive rate (HT1080 cells),"[1]; hemolyzed, 60 min, 10 mM, 37° C., threshold value 750",102.9%
same,Positive rate (Fibrosarcoma cell line),"[1]; not hemolyzed, 10 mM, 5 min, 23° C.",92.6%
same,Positive rate (HT1080 cells),"[1]; without hemolyzing treatment, 0.1 mM, 37° C., 30 min, threshold value 280",51.8%
same,Positive rate (HT1080 cells),"[1]; without hemolyzing treatment, 1 mM, 37° C., 30 min, threshold value 330",89.5%
same,Positive rate (HT1080 cells),"[1]; without hemolyzing treatment, 10 mM, 37° C., 30 min, threshold value 450 (concentration series)",90.0%
same,Positive rate (HT1080 cells),"[1]; without hemolyzing treatment, 4° C., 10 mM, 5 min, threshold value 310",94.9%
same,Positive rate (HT1080 cells),"[1]; without hemolyzing treatment, 23° C., 10 mM, 5 min, threshold value 360",92.6%
same,Positive rate (HT1080 cells),"[1]; without hemolyzing treatment, 37° C., 10 mM, 5 min, threshold value 390",101.5%
same,Positive rate (HT1080 cells),"[1]; without hemolyzing treatment, 5 min, 10 mM, 37° C., threshold value 380",92.6%
same,Positive rate (HT1080 cells),"[1]; without hemolyzing treatment, 30 min, 10 mM, 37° C., threshold value 450 (time series)",97.1%
same,Positive rate (HT1080 cells),"[1]; without hemolyzing treatment, 60 min, 10 mM, 37° C., threshold value 500",98.4%
same,Positive rate (Cancer cells),[2]; [3],50.0%
same,Positive rate (Cancer cells),[2]; [4],50.0%
"NCC(=O)CCC(=O)O [aminolevulinic acid, 5-amino-4-oxopentanoic acid]",Negative rate (Blood cells (fresh blood)),Blood cells; [5],95.2%
same,Positive rate (Blood cells (fresh blood)),Blood cells; [5],4.8%
same,Negative rate (Blood cells (fresh blood)),Blood cells; [6],95.2%
same,Positive rate (Blood cells (fresh blood)),Blood cells; [6],4.8%
same,Negative rate (Blood cells (fresh blood)),Blood cells; [7],95.2%
same,Positive rate (Blood cells (fresh blood)),Blood cells; [7],4.8%
same,Negative rate (Blood cells (fresh blood)),Blood cells; [8],95.2%
same,Positive rate (Blood cells (fresh blood)),Blood cells; [8],4.8%
same,Negative rate (Blood cells (fresh blood)),Blood cells; [9],95.2%
same,Positive rate (Blood cells (fresh blood)),Blood cells; [9],4.8%
same,Negative rate (Blood cells (fresh blood)),Blood cells; [10],95.6%
same,Positive rate (Blood cells (fresh blood)),Blood cells; [10],4.4%
same,Negative rate (Blood cells),Blood cells; [11],98%
same,Positive rate (Blood cells),Blood cells; [11],2%
same,Negative rate (Blood cells),Blood cells; [12],93%
same,Positive rate (Blood cells),Blood cells; [12],7%
same,Negative rate (Blood cells),Blood cells; [13],87%
same,Positive rate (Blood cells),Blood cells; [13],13%
same,Negative rate (Blood cells),Blood cells; [14],98%
same,Positive rate (Blood cells),Blood cells; [14],2%
same,Negative rate (Blood cells),Blood cells; [15],98%
same,Positive rate (Blood cells),Blood cells; [15],2%
same,Negative rate (Blood cells),Blood cells; [16],88%
same,Positive rate (Blood cells),Blood cells; [16],12%
same,Negative rate (Blood cells),Blood cells; [17],98%
same,Positive rate (Blood cells),Blood cells; [17],2%
same,Negative rate (Blood cells),Blood cells; [18],100%
same,Positive rate (Blood cells),Blood cells; [18],0%
same,Negative rate (Blood cells),Blood cells; [19],94%
same,Positive rate (Blood cells),Blood cells; [19],6%
same,Negative rate (Blood cells),Blood cells; [20],98%
same,Positive rate (Blood cells),Blood cells; [20],2%
same,Negative rate (Blood cells),Blood cells; [21],99%
same,Positive rate (Blood cells),Blood cells; [21],1%
same,Negative rate (Blood cells),Blood cells; [22],93%
same,Positive rate (Blood cells),Blood cells; [22],7%
same,Negative rate (Blood cells),Blood cells; [23],98%
same,Positive rate (Blood cells),Blood cells; [23],2%
same,Negative rate (Blood cells),Blood cells; [24],100%
same,Positive rate (Blood cells),Blood cells; [24],0%
same,Negative rate (Blood cells),Blood cells; [25],100%
same,Positive rate (Blood cells),Blood cells; [25],0%
same,Negative rate (Blood cells),Blood cells; [26],98%
same,Positive rate (Blood cells),Blood cells; [26],2%
same,Negative rate (Blood cells),Blood cells; [27],99%
same,Positive rate (Blood cells),Blood cells; [27],1%
same,Negative rate (Blood cells),Blood cells; [28],86%
same,Positive rate (Blood cells),Blood cells; [28],14%
